US10240133B2, “ERK-derived peptides and uses thereof” (Yeda Research and Development Co. Ltd., priority 2013, dated 2019)

Legend:
[1] = system: breast, prostate and cervical cancer-derived cells; test: Proliferation assay (Methylene Blue); type: cell-based; conditions: 72 h after peptide administration, 10 μM
Description: (§1) FIGS. 3A-3B illustrate that EPE peptide prevents proliferation of cancer but not normal cells. (A) Effect of the EPE peptide on the proliferation of various cell lines. Sixteen cancer and four “normal” immortalized cell lines were treated with either EPE or scrambled peptides as described above. Viable cells were assayed by Methylene Blue at 48 or 72 hours after cell seeding. The data from at least three independent experiments is presented as percent of the amount of viable cells/initial cell number, where initial cell number was considered as 100. (B) Comparison of the effects of the EPE-peptide and Raf inhibitor PLX4032 on cell viability. NHEM-Ad, LOXIMVI, A2352, Hela MDA-MB-231, and DU-145 cells were treated with EPE peptide, scrambled peptide, (10 μM), PLX4032 (1 μM), DMSO control, or no treatment at 1% FCS. The number of cells was detected as above. The graphs present the kinetic of cell growth at the indicated times. All experiments were repeated 3 times in triplicates.
(§2) All cells, except of MCF-10A, were seeded into 12-well cell plates in 1% FBS medium. MCF-10A cells were seeded in their complete medium diluted 5 fold. DMSO, Scr peptide, EPE peptide, or U0126 (final concentration of 10 μM each) were added to the appropriated wells four hours later. Every day medium was changed to fresh one containing the same agents. The number of viable cells was measured by Methylene Blue assay at 72 h after cell seeding. Shortly, cells were fixed with 4% Formaldehyde for 2 h at 23° C., washed once with 0.1M Borate Buffer pH 8.5 and stained with of 1% Methylene Blue in 0.1M Borate Buffer for 10 min. Color was extracted by adding 0.1 M HCl for 3 h at 23° C., and examined at 595 nm. For time course experiments, viable cells were measured at 0, 24, 48, 72 and 96 h after cell seeding. For dose response experiments we treaded the cells with 0.1, 1, 3, 10, or 30 μM of peptides for 72 h, as described above.

[2] = system: immortalized, non-transformed cells; test: Proliferation assay (Methylene Blue); type: cell-based; conditions: 72 h after peptide administration, 10 μM
Description: as §1, §2

[3] = system: melanoma cells with oncogenic B-Raf (B-Raf melanoma); test: Proliferation assay (Methylene Blue); type: cell-based; conditions: 72 h after peptide administration, 10 μM
Description: as §1, §2

[4] = system: other melanomas, prostate and lung cancer-derived cells; test: Proliferation assay (Methylene Blue); type: cell-based; conditions: 72 h after peptide administration, 10 μM
Description: as §1, §2

[5] = system: N-Ras transformed melanoma cells LOXIMVI; test: Cell viability, EPE peptide compared with PLX4032; type: cell-based; conditions: EPE 10 μM, PLX4032 1 μM, 1% FCS
Description: as §1, §2

[6] = system: all other transformed cell lines examined (A2352, Hela, MDA-MB-231, DU-145); test: Cell viability, EPE peptide compared with PLX4032; type: cell-based; conditions: EPE 10 μM, PLX4032 1 μM, 1% FCS
Description: as §1, §2

[7] = system: non-transformed melanocytes (NHEM-Ad); test: Cell viability, EPE peptide compared with PLX4032; type: cell-based; conditions: EPE 10 μM, PLX4032 1 μM, 1% FCS
Description: as §1, §2

A2352 xenografts = test: Tumor disappearance and recurrence in A2352 xenografts, EPE peptide compared with PLX4032; type: in vivo, SCID mice
Description: FIGS. 6A-6B illustrate that the EPE peptide prevents the growth of human tumor xenografts. CD-1 nude mice were inoculated with MDA-MB-231, LOXIMVI and HCT-116 cells, and SKID mice were inoculated with A2352 cells. Upon tumors establishment, the mice were treated intravenously with the DMSO as well as EPE or Scr peptides in the indicated doses, 3 times a week. The results are averages of 5 mice in each experimental group. The X, Y, Z dimensions of the tumors were measured with a caliper, and the volume was calculated accordingly. The significance of all experiments was at least P<0.001. (B) The EPE peptide prevents tumor recurrence on melanoma xenograft. SCID mice were inoculated with A2352 cells. Upon establishment of tumors mice were treated intravenously with 15 mg/kg EPE peptide (n=7) or intraperitonealy with 15 mg/kg PLX4032 (n=5), at the indicated dose 3 times a week. Tumor size was recorded at the same time using a caliper. Following 3 weeks of treatment, mice were kept for further evaluation monitoring for any tumor recurrence of the effective treated melanoma xenografts. Experiment was concluded 110 days post inoculation (11 weeks after the last treatment) and the overall state of the animals was evaluated. sac=sacrificed, recur=recurrence, met=metastasis.
Tumor dimensions were measured with a digital sliding caliper.

Sequence: GQLNHILGILGEPEQED (Synthetic peptide (EPE)) [EPE peptide, NTS-derived peptide with phosphomimetic EPE motif]
- proliferation (cell number) [1]: prevented cell growth, but did not reduce the number of initial cells
- proliferation (cell number) [2]: did not respond to the peptide at all
- proliferation (cell number) [3]: profound reduction in cell number
- proliferation (cell number) [4]: small decrease in cell growth
- viability [5]: able to reduce the viability
- effect on viability relative to PLX4032 [6]: at least as good, or even better, than that of PLX4032
- viability [7]: does not have any significant effect
- time to complete disappearance of tumors (A2352 xenografts; 15 mg/kg, 3 times a week): 10 to 23 days
- tumor disappearance (A2352 xenografts; 15 mg/kg, 3 times a week, 3 weeks, EPE i.v. (n=7), PLX4032 i.p. (n=5), initial ~80 mm3 tumors): complete disappearance of the tumors of all mice
- overall state of animals after treatment (A2352 xenografts; follow up after last treatment, incl. 5 other animals in a repeating experiment): remained healthy up to 11 weeks after treatment
- mice with tumor recurrence (A2352 xenografts; follow up for up to 11 weeks after last treatment): None
